Results reported in patent publication US12118414B2, “BCL-2 proteins degraders for cancer treatment” (BioVentures, LLC, priority 2018, dated 2024).
One block for each molecule: values may come before it.

Tests used:
Bcl-2 [1] = target: T1, Bcl-2 (Homo sapiens, UniProt P10415); test: AlphaLISA competitive binding assay, Bcl-2; design: purchased Sigma-Aldrich; settings: His-tagged Bcl-2, biotin-tagged BIM peptide, 24 h incubation
Procedure: (§1) Purified recombinant His-tagged Bcl-xL/Bcl-2/Bcl-w (Sigma-Aldrich, St. Louis, MO) were incubated with increasing concentrations of compound #55 and a fixed concentration of biotin-tagged Bad (for Bcl-xL) or BIM peptides (for Bcl-2 and Bcl-w) (AnaSpec, Fremont, CA) to a final volume of 40 µL in 96-well PCR plate. After 24 h incubation, 5 μL 6×His-Acceptor beads (final concentration 20 μg/mL) (PerkinElmer, Houston, TX) were added to each well and incubated for 1 h. Thereafter, 5 μL streptavidin-donor beads were added (final concentration 20 μg/mL) (PerkinElmer) to each well and incubated for 0.5 h. At the end of the incubation period, 17 μL of each sample was transferred in adjacent wells of 384-well proxy plate. The plate was scanned using Alpha program on Biotek's Synergy Neo2 multi-mode plate reader. The inhibition constant (Ki) was calculated using non-linear regression, one site, competitive binding, Fit Ki function on GraphPad Prism based on experimentally determined Kd for each protein/peptide pair.

platelets = test: Platelet toxicity; type: cell-based; settings: up to 3 μM; data not shown
Mcl-1 [2] = target: T2, Mcl-1 (Homo sapiens, UniProt Q07820); test: Western blot Mcl-1 levels in MOLT4 cells; type: cell-based; design: endogenous in cells; settings: 16 h
Procedure: (§2) MOLT4 cells and human platelets were incubated with increasing concentrations of compound #55 for 16 h. The cells were harvested and lysed in RIPA lysis buffer supplemented with protease and phosphatase inhibitor cocktails. An equal amount of protein (20 μg/lane) was resolved on a pre-cast 4-20% SDS-PAGE gel. Proteins were subsequently transferred to NOVEX PVDF membranes by electrophoresis. The membranes were blocked in blocking buffer (5% non-fat dry milk in TBS-T), and incubated with primary antibodies (at optimized concentrations) overnight at 4° C. After three washings in TBS-T, the membranes were incubated with an appropriate HRP-conjugated secondary antibody for 1 h at room temperature. After extensive washing for three times, the proteins of interest were detected with ECL western blotting detection reagents and recorded with autoradiography (Pierce Biotech, Rockford, IL, USA). The primary antibodies for Bcl-xL (Cat #2762), Bcl-2 (Cat #2872), Mcl-1 (Cat #5453) and β-actin (Cat #4970) were purchased from Cell Signaling technology. The relative band intensity was measured using ImageJ software and normalized to b-actin. The DC50 (concentration with 50% degradation) was calculated using GraphPad Prism. […] Bcl-2 levels were not detected, whereas Mcl-1 was unaffected with compound #55 treatment in MOLT4 cells (FIGS. 1B and 1D). […]

Bcl-xL [3] = target: T3, Bcl-xL (Homo sapiens, UniProt Q07817); test: Western blot Bcl-xL degradation assay in human platelets; type: cell-based; design: endogenous in cells; host or cells: MOLT4; settings: 16 h
Procedure: (§3) MOLT4 cells and human platelets were incubated with increasing concentrations of compound #55 for 16 h. The cells were harvested and lysed in RIPA lysis buffer supplemented with protease and phosphatase inhibitor cocktails. An equal amount of protein (20 μg/lane) was resolved on a pre-cast 4-20% SDS-PAGE gel. Proteins were subsequently transferred to NOVEX PVDF membranes by electrophoresis. The membranes were blocked in blocking buffer (5% non-fat dry milk in TBS-T), and incubated with primary antibodies (at optimized concentrations) overnight at 4° C. After three washings in TBS-T, the membranes were incubated with an appropriate HRP-conjugated secondary antibody for 1 h at room temperature. After extensive washing for three times, the proteins of interest were detected with ECL western blotting detection reagents and recorded with autoradiography (Pierce Biotech, Rockford, IL, USA). The primary antibodies for Bcl-xL (Cat #2762), Bcl-2 (Cat #2872), Mcl-1 (Cat #5453) and β-actin (Cat #4970) were purchased from Cell Signaling technology. The relative band intensity was measured using ImageJ software and normalized to b-actin. The DC50 (concentration with 50% degradation) was calculated using GraphPad Prism. […] Bcl-2 levels were not detected, whereas Mcl-1 was unaffected with compound #55 treatment in MOLT4 cells (FIGS. 1B and 1D). […] The DC50 and Dmax values of compound #55 in platelets were >3 μM and 26%, respectively (FIG. 1E).

Bcl-xL [4] = target: T3, Bcl-xL; test: Western blot Bcl-xL degradation assay in MOLT4 cells; type: cell-based; design: endogenous in cells; host or cells: MOLT4
Procedure: as §3
MOLT4 cells were incubated with a fixed concentration of compound #55 for increasing time points. In another experiment, cells were treated for 16 hours followed by drug withdrawal and further cultured for increasing time-points before harvesting them for Bcl-xL degradation assays. Bcl-xL levels were measured using Western blot analysis as described above. The relative band intensity was measured using ImageJ software and normalized to equal loading control β-actin.
Cell viability was measured by MTS assay.
Third, we sought to confirm that compound #55-induced Bcl-xL degradation depends on proteasomal activity.
Fourth, we sought to confirm that Bcl-xL degardation by compound #55 requires the binding with Bcl-xL protein.

EJM cells = test: MTS cell viability assay in EJM cells; type: cell-based, human
Procedure: (§4) Multiple Myeloma EJM cells were incubated either with 250 nM S63845 (Mcl-1 inhibitor) or 125 nM compound #55 or the combination of both for 72 h. The cell viability was measured using MTS assay. The combination indices (CI) were calculated using formula CI=AB/(A×B); where AB is the percent cell inhibition by the combination whereas A and B are the percent cell inhibition by individual agents. CI<1 indicates synergism, whereas CI<0.3 indicates strong synergism.

Bcl-xL [5] = target: T3, Bcl-xL; test: Western blot Bcl-XL degradation in additional cancer cells; type: cell-based; design: endogenous in cells; settings: RS4; 11, EJM, H929 (16 h), H146 (48 h); fixed concentration
Procedure: as §2, with “The primary antibodies for Bcl-xL (Cat #2762), Bcl-2 (Cat #2872), Mcl-1 (Cat #5453) and β-actin (Cat #4970) were purchased from Cell Signaling technology.” left out
(§5) Tumor cells were incubated with a fixed concentration of compound #55 for 16 h (RS4; 11, EJM, H929) or 48 h (H146) and Bcl-2/Bcl-xL/Mcl-1 levels were determined using Western blot analysis as described above.

H146 cells = test: MTS cell viability assay in H146 cells; type: cell-based, human
Procedure: as §4, with “Small cell lung cancer H146” for “Multiple Myeloma EJM”, “500” for “250”, “ABT-199 (Bcl-2” for “S63845 (Mcl-1”

Bcl-xL [6] = target: T3, Bcl-xL; test: AlphaLISA competitive binding assay, Bcl-xL; design: purchased Sigma-Aldrich; settings: His-tagged Bcl-xL, biotin-tagged Bad peptide, 24 h incubation
Procedure: as §1

Mcl-1 [7] = target: T2, Mcl-1; test: Western blot Mcl-1 levels in additional cancer cells; type: cell-based; design: endogenous in cells; host or cells: RS4;11, EJM, H929, H146; settings: RS4; 11, EJM, H929 (16 h), H146 (48 h); fixed concentration
Procedure: as §2, with “The primary antibodies for Bcl-xL (Cat #2762), Bcl-2 (Cat #2872), Mcl-1 (Cat #5453) and β-actin (Cat #4970) were purchased from Cell Signaling technology.” left out
as §5

H929 cells = test: MTS cell viability assay in H929 cells; type: cell-based, human; settings: Mcl-1-dependent H929 cells, 72 h
Procedure: (§6) Cell viability was measured by tetrazolium-based MTS assay and IC50 was calculated as a percentage of vehicle-treated cells.

RS4; 11 cells = test: MTS cell viability assay in RS4; 11 cells; type: cell-based, human
Procedure: as §6

[8] = tested on: caspase-3 and poly (ADP) ribose polymerase (PARP); test: Western blot of cleaved caspase-3 and PARP in MOLT4 cells; type: cell-based, human; settings: 0.1 and 0.3 μM, 24 h
Procedure: At the end of incubation, cells were harvested for western blot analysis of cleaved and full length caspase-3 and poly (ADP) ribose polymerase (PARP). The antibodies for cleaved caspase-3 (Cat #9661), full length caspase-3 (Cat #9662), and PARP (Cat #9532) were purchased from Cell Signaling Technology. A single Anti-PARP antibody used can detect both cleaved and full length PARP.

MOLT4 cells = test: MTS cell viability assay in MOLT4 cells
Procedure: as §6

Bcl-w = target: T4, Bcl-w (Homo sapiens, UniProt Q92843); test: AlphaLISA competitive binding assay, Bcl-w; settings: His-tagged Bcl-w, biotin-tagged BIM peptide, 24 h incubation
T4 construct: purchased Sigma-Aldrich
T4 sequence (Q92843 1-193): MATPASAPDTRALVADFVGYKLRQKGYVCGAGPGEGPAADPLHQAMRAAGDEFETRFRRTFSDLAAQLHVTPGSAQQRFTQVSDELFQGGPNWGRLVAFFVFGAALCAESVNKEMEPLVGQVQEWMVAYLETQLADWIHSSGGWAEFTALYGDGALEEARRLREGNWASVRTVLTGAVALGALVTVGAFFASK
Procedure: as §1

Bcl-2 [9] = target: T1, Bcl-2; test: Western blot Bcl-2 levels in additional cancer cells; type: cell-based; design: endogenous in cells; host or cells: RS4;11, EJM, H929, H146; settings: RS4; 11, EJM, H929 (16 h), H146 (48 h); fixed concentration
Procedure: as §2, with “The primary antibodies for Bcl-xL (Cat #2762), Bcl-2 (Cat #2872), Mcl-1 (Cat #5453) and β-actin (Cat #4970) were purchased from Cell Signaling technology.” left out
as §5

T3 sequence (Q07817 whole entry): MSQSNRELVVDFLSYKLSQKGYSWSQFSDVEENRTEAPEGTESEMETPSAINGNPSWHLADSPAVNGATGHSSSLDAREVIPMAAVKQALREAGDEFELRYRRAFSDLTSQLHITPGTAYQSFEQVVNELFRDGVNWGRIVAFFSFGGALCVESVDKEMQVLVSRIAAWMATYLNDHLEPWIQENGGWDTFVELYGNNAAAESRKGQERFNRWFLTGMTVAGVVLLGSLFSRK
T1 sequence (P10415 whole entry): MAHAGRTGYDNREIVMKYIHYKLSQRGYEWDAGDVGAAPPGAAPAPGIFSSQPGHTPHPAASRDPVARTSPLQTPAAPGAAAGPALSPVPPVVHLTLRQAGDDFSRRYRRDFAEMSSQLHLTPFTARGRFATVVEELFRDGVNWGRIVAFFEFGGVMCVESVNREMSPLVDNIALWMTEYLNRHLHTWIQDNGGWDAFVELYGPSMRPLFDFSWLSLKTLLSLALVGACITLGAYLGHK
T2 sequence (Q07820 whole entry): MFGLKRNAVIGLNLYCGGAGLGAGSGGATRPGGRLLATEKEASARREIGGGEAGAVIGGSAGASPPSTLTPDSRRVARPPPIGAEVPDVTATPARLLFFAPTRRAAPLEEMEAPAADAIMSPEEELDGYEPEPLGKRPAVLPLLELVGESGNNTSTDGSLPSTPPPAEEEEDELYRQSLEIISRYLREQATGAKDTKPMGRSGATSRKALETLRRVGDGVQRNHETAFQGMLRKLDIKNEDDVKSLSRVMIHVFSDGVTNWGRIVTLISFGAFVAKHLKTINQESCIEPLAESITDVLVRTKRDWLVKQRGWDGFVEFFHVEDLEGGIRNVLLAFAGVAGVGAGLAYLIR

Molecule: (2S,4R)-1-((S)-2-(7-(4-((R)-3-((4-(N-(4-(4-((4′- Chloro-4,4-dimethyl- 3,4,5,6-tetrahydro-[1,1′-biphenyl]-2- yl)methyl)piperazin-1-yl)benzoyl)sultamoyl)-2- ((trifluoromethyl)sulfonyl)phenyl)amino)-4- (phenylthio)butyl)piperazin-1-yl)-7- oxoheptanamido)-3,3-dimethylbutanoyl)-4-hydroxy- N-((S)-1-(4-(4-methylthiazol-5- yl)phenyl)ethyl)pyrrolidine-2-carboxamide [compound #55]
Ki (Bcl-2 [1]): 1.82 nM
platelet toxicity (platelets): did not induce any significant platelet toxicity
Mcl-1 levels (Mcl-1 [2]): unaffected
Bcl-xL levels (Bcl-xL [3]): did not affect Bcl-xL levels
DC50 (Bcl-xL [3]): > 3000 nM
Dmax of Bcl-xL (Bcl-xL [3]): 26%
Bcl-xL degradation in ABT263-pretreated cells (Bcl-xL [4]; 1 μM ABT-263 pretreatment, 0.1 and 1 μM, 16 h): did not induce Bcl-xL degradation
Bcl-xL degradation in MG132-pretreated cells (Bcl-xL [4]; 1 μM MG132 pretreatment, 0.1 and 1 μM, 6 h): did not induce Bcl-xL degradation
Dmax (maximum degradation) of Bcl-xL (Bcl-xL [4]; 16 h): 90.8%
DC50 (Bcl-xL [4]; 16 h, read-out: DC50 (concentration with 50% degradation) of Bcl-xL): 63 nM
Bcl-xL degradation in VHL-L-pretreated cells (Bcl-xL [4]; VHL-L pretreatment, then 16 h): did not induce Bcl-xL degradation
time at which significant Bcl-xL degradation starts (Bcl-xL [4]; fixed concentration, increasing time points): 2 h
Bcl-xL degrading activity after drug withdrawal (Bcl-xL [4]; treated 16 hours then drug withdrawal): able to sustain its Bcl-xL degrading activity for prolonged period after drug withdrawal
loss of cell viability in combination with S63845 (EJM cells; EJM cells, 125 nM compound #55 + 250 nM S63845, 72 h): synergistically induce the loss of cell viability
cellular activity (EJM cells; Mcl-1-dependent EJM cells, 72 h): did not show any significant cellular activity
Bcl-XL degradation (Bcl-xL [5]): capable of degrading Bcl-XL in all these cell lines
IC50 (H146 cells; Bcl-2/Bcl-xL-dependent H146 cells, 72 h, MTS, read-out: IC50 loss of cell viability): 160 nM
loss of cell viability in combination with ABT-199 (H146 cells; H146 cells, 125 nM compound #55 + 500 nM ABT-199, 72 h, MTS): synergistically induce the loss of cell viability
effect on cell viability compared with ABT-263 (H146 cells; H146 cells, 72 h): less prominent than ABT-263
Ki (Bcl-xL [6]): 12.8 nM
effect on Mcl-1 levels (Mcl-1 [7]): sparing Bcl-2 and Mcl-1
cellular activity (H929 cells): did not show any significant cellular activity
IC50 (RS4; 11 cells; Bcl-2-dependent RS4, 72 h, MTS, read-out: IC50 loss of cell viability): 230 nM
effect on cell viability compared with ABT-263 (RS4; 11 cells; RS4, 72 h): less prominent than ABT-263
cleavage of caspase-3 and PARP [8]: induced cleavage of caspase-3 and PARP
cleavage of caspase-3 and PARP compared with ABT263 [8]: more pronounced than ABT263
cell killing in the presence of VHL-L (MOLT4 cells; MOLT4 cells pretreated with 1 and 2 μM VHL-L for 1 h, then 72 h): abrogated
IC50 (MOLT4 cells; read-out: IC50 cell viability, Bcl-XL-dependent MOLT4 cells, 72 h, MTS): 52 nM
Ki (Bcl-w): 301 nM
effect on Bcl-2 levels (Bcl-2 [9]): sparing Bcl-2 and Mcl-1

Ki (Bcl-w): 33.5 nM
Molecule: CC1(C)CCC(c2ccc(Cl)cc2)=C(CN2CCN(c3ccc(C(=O)NS(=O)(=O)c4ccc(N[C@H](CCN5CCOCC5)CSc5ccccc5)c(S(=O)(=O)C(F)(F)F)c4)cc3)CC2)C1 [ABT-263, navitoclax, reference compound]
cell killing in the presence of VHL-L (MOLT4 cells; MOLT4 cells, with 1 μM and 2 μM VHL-L, 72 h): could not further induce the cell killing in the presence of VHL-L
